Reference: ChEMBL document CHEMBL1201862, “PubChem BioAssay data set” (2004)
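96-well plates; 48 h exposure; 5 concentrations. Endpoints by linear interpolation between flanking doses. Not reached: highest tested concentration assigned. GI50 marks 50% less growth.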 The source made the active and inactive calls. Cut-off read from the data, not from the text of the source: active = GI50 up to about 1.1 µM and inactive = higher.

Legend:
Test in all cases: inhibition of tumour cell growth, NCI panel, 48 h
U-251 = test system: U-251
KM12 = test system: KM12
786-0 = test system: 786-0
NCI-H226 = test system: NCI-H226
SK-OV-3 = test system: SK-OV-3
CCRF-CEM = test system: CCRF-CEM
K562 = test system: K562
HOP-62 = test system: HOP-62
SNB-19 = test system: SNB-19
SN12C = test system: SN12C
SNB-75 = test system: SNB-75
Malme-3M = test system: Malme-3M
IGROV-1 = test system: IGROV-1
HOP-92 = test system: HOP-92
NCI-H460 = test system: NCI-H460
SK-MEL-5 = test system: SK-MEL-5
M14 = test system: M14
RXF 393 = test system: RXF 393

Row | Compound | GI50 (U-251) | GI50 (KM12) | GI50 (786-0) | GI50 (NCI-H226) | GI50 (SK-OV-3) | GI50 (CCRF-CEM) | GI50 (K562) | GI50 (HOP-62) | GI50 (SNB-19) | GI50 (SN12C) | GI50 (SNB-75) | GI50 (Malme-3M) | GI50 (IGROV-1) | GI50 (HOP-92) | GI50 (NCI-H460) | GI50 (SK-MEL-5) | GI50 (M14) | GI50 (RXF 393)
1 | CCC(=O)OC1CCn2c1nc1c2C(=O)C(C)=C(NC(C)=O)C1=N (stereo not drawn) | 3.74 µM (inactive) | 2.11 µM (inactive) | 2.43 µM (inactive) | 1.93 µM (inactive) | 2.6 µM (inactive) | 1 µM (active) | 2.34 µM (inactive) | 1.83 µM (inactive) | 5.26 µM (inactive) | 1.6 µM (inactive) | 2.48 µM (inactive) | 1.43 µM (inactive) | 2.29 µM (inactive) | 2.21 µM (inactive) | 1.47 µM (inactive) | 1.29 µM (inactive) |  | 
2 | Cn1cnc([N+](=O)[O-])c1Sc1nccn1-c1cccc2ccccc12 | 26.2 µM (inactive) | 35.7 µM (inactive) | 48.1 µM (inactive) | 18.2 µM (inactive) | 31.8 µM (inactive) | 19.5 µM (inactive) | 19.8 µM (inactive) | > 100 µM (inactive) | 94 µM (inactive) | 31.7 µM (inactive) | 29.9 µM (inactive) | 13.7 µM (inactive) | 26.7 µM (inactive) | 15.3 µM (inactive) | 25.7 µM (inactive) | 29.2 µM (inactive) | 18.8 µM (inactive) | 
3 | CCN(CC)C(=S)SCC(=O)Nc1nc2c(s1)CCCC2 | 70.1 µM (inactive) | > 100 µM (inactive) | 60.8 µM (inactive) | > 100 µM (inactive) | > 100 µM (inactive) | 49.4 µM (inactive) |  | > 100 µM (inactive) | > 100 µM (inactive) | > 100 µM (inactive) | 72.6 µM (inactive) | > 100 µM (inactive) | > 100 µM (inactive) | 68.2 µM (inactive) | 68.9 µM (inactive) | 26 µM (inactive) | > 100 µM (inactive) | 
4 | O=C1CC[C@@H](S(=O)(=O)c2ccccc2)[C@H](/C=C/c2ccccc2)O1 | > 100 µM (inactive) | > 100 µM (inactive) | > 100 µM (inactive) | > 100 µM (inactive) | > 100 µM (inactive) | > 100 µM (inactive) | > 100 µM (inactive) | > 100 µM (inactive) | > 100 µM (inactive) | > 100 µM (inactive) | > 100 µM (inactive) | > 100 µM (inactive) | > 100 µM (inactive) |  | > 100 µM (inactive) | > 100 µM (inactive) | > 100 µM (inactive) | > 100 µM (inactive)
5 | Cc1cccc(C)c1NC(=O)CCC/C(CC(=O)c1ccc(F)cc1)=N\NC(=O)C(=O)NN | > 100 µM (inactive) | > 100 µM (inactive) | > 100 µM (inactive) | > 100 µM (inactive) | > 100 µM (inactive) | > 100 µM (inactive) | > 100 µM (inactive) |  | > 100 µM (inactive) | > 100 µM (inactive) | > 100 µM (inactive) | > 100 µM (inactive) | > 100 µM (inactive) |  | > 100 µM (inactive) | > 100 µM (inactive) | > 100 µM (inactive) | 21.9 µM (inactive)
6 | NC(=O)c1ccccc1NC(=O)C(=O)C(C(=O)c1ccc(Cl)c(Cl)c1)C1OC(=O)c2ccccc21 (stereo not drawn) | 30.8 µM (inactive) | 60.4 µM (inactive) | 48.8 µM (inactive) | 14.9 µM (inactive) |  | > 100 µM (inactive) | > 100 µM (inactive) | 43.8 µM (inactive) | 45 µM (inactive) | 44.4 µM (inactive) | 23.4 µM (inactive) | 14.5 µM (inactive) | 60.1 µM (inactive) | 42.8 µM (inactive) |  |  | 61.1 µM (inactive) | 17 µM (inactive)
7 | O=C(/C=C/c1ccc([N+](=O)[O-])o1)N1CCN(Cc2ccccc2)CC1 | 14 µM (inactive) | 12.1 µM (inactive) | 12.7 µM (inactive) |  | 43.5 µM (inactive) | 2.7 µM (inactive) | 3.46 µM (inactive) | 20.2 µM (inactive) | 16.2 µM (inactive) | 9.04 µM (inactive) | 14.7 µM (inactive) |  | 16.5 µM (inactive) | 14.1 µM (inactive) | 11.2 µM (inactive) | 10.2 µM (inactive) | 4.66 µM (inactive) | 11.8 µM (inactive)
8 | O=C(Cn1ccnc1[N+](=O)[O-])c1ccccc1 |  | > 100 µM (inactive) | > 100 µM (inactive) | > 100 µM (inactive) | > 100 µM (inactive) | > 100 µM (inactive) | > 100 µM (inactive) | > 100 µM (inactive) | > 100 µM (inactive) | > 100 µM (inactive) | > 100 µM (inactive) | > 100 µM (inactive) | > 100 µM (inactive) | > 100 µM (inactive) | > 100 µM (inactive) | > 100 µM (inactive) | > 100 µM (inactive) | > 100 µM (inactive)
9 | CN(C)C(=O)CC(C(=O)O)c1c[nH]c2ccccc12 (stereo not drawn) | > 100 µM (inactive) | > 100 µM (inactive) | > 100 µM (inactive) |  |  | > 100 µM (inactive) | > 100 µM (inactive) | > 100 µM (inactive) | > 100 µM (inactive) | > 100 µM (inactive) | > 100 µM (inactive) | > 100 µM (inactive) | > 100 µM (inactive) |  | > 100 µM (inactive) | > 100 µM (inactive) | > 100 µM (inactive) | 10.2 µM (inactive)
10 | Cc1ccc(C)c(NC(=O)CCc2n[nH]c(=S)o2)c1 | > 100 µM (inactive) | > 100 µM (inactive) | > 100 µM (inactive) | > 100 µM (inactive) |  | > 100 µM (inactive) | > 100 µM (inactive) | > 100 µM (inactive) | > 100 µM (inactive) | > 100 µM (inactive) | > 100 µM (inactive) | > 100 µM (inactive) | > 100 µM (inactive) | > 100 µM (inactive) | > 100 µM (inactive) | > 100 µM (inactive) | > 100 µM (inactive) | > 100 µM (inactive)
11 | C=C(COC(C)=O)CC(/C=C(\C)CC/C=C(\C)CO)OC(C)=O (stereo not drawn) | > 100 µM (inactive) | > 100 µM (inactive) | > 100 µM (inactive) | > 100 µM (inactive) | > 100 µM (inactive) | > 100 µM (inactive) | > 100 µM (inactive) | > 100 µM (inactive) | > 100 µM (inactive) | > 100 µM (inactive) | 59 µM (inactive) |  | > 100 µM (inactive) | 54.8 µM (inactive) | > 100 µM (inactive) | > 100 µM (inactive) | > 100 µM (inactive) | > 100 µM (inactive)
12 | CCOC(OCC)c1ccc(/C=C/c2cc(OC)c(OC)c(OC)c2)cc1 | 16.3 µM (inactive) | > 10 µM (inactive) | 23.3 µM (inactive) | 30.4 µM (inactive) |  | 12.9 µM (inactive) | 17.1 µM (inactive) | 19.8 µM (inactive) | 29 µM (inactive) | 18.9 µM (inactive) | 19.5 µM (inactive) | 17.1 µM (inactive) | 32.7 µM (inactive) | 21.8 µM (inactive) | 19.1 µM (inactive) | 15.2 µM (inactive) | 17.7 µM (inactive) | 19.8 µM (inactive)
13 | COC(=O)c1c2cccccc-2c(Cc2c3cccccc-3c(C(=O)OC)c2O)c1O | > 100 µM (inactive) | > 100 µM (inactive) | > 100 µM (inactive) | > 100 µM (inactive) | > 100 µM (inactive) | > 100 µM (inactive) | > 100 µM (inactive) | > 100 µM (inactive) | > 100 µM (inactive) | > 100 µM (inactive) | 86.5 µM (inactive) | > 100 µM (inactive) | > 100 µM (inactive) | > 100 µM (inactive) | > 100 µM (inactive) | > 100 µM (inactive) | > 100 µM (inactive) | 
14 | CC(=O)N1CC(=O)NC1=S | > 100 µM (inactive) | > 100 µM (inactive) | > 100 µM (inactive) | > 100 µM (inactive) | > 100 µM (inactive) | > 100 µM (inactive) | > 100 µM (inactive) | > 100 µM (inactive) | > 100 µM (inactive) | > 100 µM (inactive) | 69.3 µM (inactive) | > 100 µM (inactive) | > 100 µM (inactive) | > 100 µM (inactive) |  | > 100 µM (inactive) | > 100 µM (inactive) | 
15 | Nc1nc(Cl)cc(NCCCCCNc2cc(Cl)nc(N)n2)n1 | > 100 µM (inactive) | > 100 µM (inactive) | > 100 µM (inactive) | 41.4 µM (inactive) | > 100 µM (inactive) | 54.1 µM (inactive) | 34.6 µM (inactive) | > 100 µM (inactive) | > 100 µM (inactive) | > 100 µM (inactive) | 72.3 µM (inactive) |  | > 100 µM (inactive) | 28.2 µM (inactive) | > 100 µM (inactive) | 23.5 µM (inactive) | 88.3 µM (inactive) | 58.3 µM (inactive)
16 | CCOc1cc2c(cc1OC)c[n+](C)c1c3cc(OC)c(OC)cc3ccc21 | > 33.4 µM (inactive) | 72.4 µM (inactive) | > 42.1 µM (inactive) | > 57.1 µM (inactive) | > 100 µM (inactive) | 35.9 µM (inactive) | > 34.3 µM (inactive) | > 81.7 µM (inactive) | > 52.5 µM (inactive) | 77.4 µM (inactive) |  | > 77.6 µM (inactive) | > 66.5 µM (inactive) | 27 µM (inactive) | > 73.6 µM (inactive) | > 50.4 µM (inactive) | > 100 µM (inactive) | 34 µM (inactive)
